Laboratory results as given in patent US9855245B2, “Methods for improving lipid profiles using atrasentan” (AbbVie Inc., priority 2013, dated 2018).
Structures can show the parent of a compound that is named as a salt. Where two headings read alike, the source gives them in different places. Non-standard residues stand in square brackets, D forms with d. Residues, ends and D or L forms follow the SMILES beside them.

Assays:
[1] = cited from earlier work
[2] = tested on: subjects with type 2 diabetes and nephropathy; assay: Example 3: Phase 2b randomized, double-blind, placebo-controlled 8-week study with thoracic bioimpedance; format: in vivo, human; conditions: dose of 0.5 mg
Excerpt: This study also included measurement of thoracic bioimpedance to assess the potential for thoracic fluid retention with atrasentan.
An equal percentage of subjects in all 3 groups experienced an adverse event (81.3%). […] (Table 17).
A mean decrease of 4 ohms in thoracic bioimpedance, as measured by the ZOE® Fluid Status Monitor, is considered clinically indicative of thoracic fluid overload. Mean thoracic bioimpedance fluctuated in all treatment groups over time, with greater mean changes in the 2 atrasentan groups than in the placebo group.

ob-ZSF1 rats = assay: Example 5: preclinical study of hypotensive synergy, mean arterial pressure; format: in vivo, rat; conditions: 10 mg/kg/day for 12 weeks
Excerpt: In the example, a preclinical animal model is used to evaluate whether atrasentan and an ARB cause a synergistic hypotensive effect.

CC(C)C[C@@H]1NC(=O)[C@@H](C(C)C)NC(=O)[C@@H]2CCCN2C(=O)[C@@H](CC(=O)O)NC(=O)[C@@H](Cc2c[nH]c3ccccc23)NC1=O [BQ-123] (cyclo(L[dW][dD]P[dV]))
mean arterial pressure, mean area under curve +/− SEM ([1]; BQ-123 alone): −2.3 mmHg | mean arterial pressure, mean area under curve +/− SEM ([1]; BQ-123 plus enalapril): −5.1 mmHg

CCCCN(CCCC)C(=O)CN1C[C@H](c2ccc3c(c2)OCO3)[C@@H](C(=O)O)[C@@H]1c1ccc(OC)cc1 [atrasentan HCl]
reduction in UACR [2]: not demonstrated to result in a statistically significant reduction in UACR

CCCCc1nc(Cl)c(CO)n1Cc1ccc(-c2ccccc2-c2nn[nH]n2)cc1 [losartan, reference compound]
mean arterial pressure (MAP) (ob-ZSF1 rats): significant decrease
